# ChEMBL document CHEMBL5543109, “Novel β-Hairpin Antimicrobial Peptide Containing the β-Turn Sequence of -NG- and the Tryptophan Zippers Facilitate Self-Assembly into Nanofibers, Exhibiting Excellent Antimicrobial Performance” (J Med Chem, 2024)
# Active and inactive are the calls of the source. The rule behind the calls is not given here.
# Experiments:
# [1] = system: Staphylococcus aureus; assay: Antibacterial activity against Staphylococcus aureus ATCC 25923 incubated for 18 hrs by broth microdilution method; assay type: functional
# [2] = system: Bacillus subtilis; assay: Antibacterial activity against Bacillus subtilis ATCC 23857 incubated for 18 hrs by broth microdilution method; assay type: functional
# [3] = system: Staphylococcus epidermidis; assay: Antibacterial activity against Staphylococcus epidermidis ATCC 12228 incubated for 18 hrs by broth microdilution method; assay type: functional
# [4] = system: Klebsiella pneumoniae; assay: Antibacterial activity against Klebsiella pneumoniae ATCC 700603 incubated for 18 hrs by broth microdilution method; assay type: functional
# [5] = system: Escherichia coli; assay: Antibacterial activity against Escherichia coli ATCC 25922 incubated for 18 hrs by broth microdilution method; assay type: functional
# [6] = system: Pseudomonas aeruginosa; assay: Antibacterial activity against Pseudomonas aeruginosa ATCC 27853 incubated for 18 hrs by broth microdilution method; assay type: functional
# [7] = system: Pseudomonas aeruginosa; assay: Drug resistance against Pseudomonas aeruginosa assessed as fold increase in MIC after 40 consecutive days of passages by sequential passaging method; assay type: functional; conditions: time 18 hrs
# [8] = system: Staphylococcus aureus; assay: Antibacterial activity against Staphylococcus aureus infected in BALB/c mouse systemic infection model assessed as reduction in liver bacterial load at 10 mg/kg, ip measured after 8 hrs; assay type: functional, organism-based
# [9] = system: Staphylococcus aureus; assay: Antibacterial activity against Staphylococcus aureus infected in BALB/c mouse systemic infection model assessed as reduction in lung bacterial load at 10 mg/kg, ip measured after 8 hrs; assay type: functional, organism-based
# [10] = system: Staphylococcus aureus; assay: Antibacterial activity against Staphylococcus aureus infected in BALB/c mouse systemic infection model assessed as reduction in kidney bacterial load at 10 mg/kg, ip measured after 8 hrs; assay type: functional, organism-based
# [11] = system: Staphylococcus aureus; assay: Antibacterial activity against Staphylococcus aureus infected in BALB/c mouse systemic infection model assessed as reduction in spleen bacterial load at 10 mg/kg, ip measured after 8 hrs; assay type: functional, organism-based
# [12] = system: Staphylococcus aureus; assay: Antibacterial activity against methicillin resistant Staphylococcus aureus incubated for 18 hrs by broth microdilution method; assay type: functional
# [13] = system: Staphylococcus aureus; assay: Antibacterial activity against methicillin resistant Staphylococcus aureus 113 incubated for 18 hrs by broth microdilution method; assay type: functional
# [14] = system: Staphylococcus aureus; assay: Antibacterial activity against Staphylococcus aureus S794 incubated for 18 hrs by broth microdilution method; assay type: functional
# [15] = system: Staphylococcus aureus; assay: Antibacterial activity against Staphylococcus aureus S125 incubated for 18 hrs by broth microdilution method; assay type: functional
# [16] = system: Staphylococcus aureus; assay: Antibacterial activity against methicillin resistant Staphylococcus aureus 75 incubated for 18 hrs by broth microdilution method; assay type: functional
# [17] = system: Staphylococcus aureus; assay: Antibacterial activity against Staphylococcus aureus incubated for 18 hrs by broth microdilution method; assay type: functional
# [18] = system: Staphylococcus aureus; assay: Antibacterial activity against kanamycin resistant Staphylococcus aureus incubated for 18 hrs by broth microdilution method; assay type: functional
# [19] = system: Staphylococcus aureus; assay: Antibacterial activity against rifampicin resistant Staphylococcus aureus incubated for 18 hrs by broth microdilution method; assay type: functional
# [20] = system: Escherichia coli; assay: Antibacterial activity against Escherichia coli incubated for 18 hrs by broth microdilution method; assay type: functional
# [21] = system: Escherichia coli; assay: Antibacterial activity against kanamycin resistant Escherichia coli incubated for 18 hrs by broth microdilution method; assay type: functional
# [22] = system: Escherichia coli; assay: Antibacterial activity against rifampicin resistant Escherichia coli incubated for 18 hrs by broth microdilution method; assay type: functional
# [23] = system: Erythrocyte; assay: Hemolytic activity in mouse erythrocytes assessed as concentration required to cause 10% hemolysis incubated for 1 hr; assay type: toxicity, cell-based
# [24] = Acute toxicity in ip dosed mouse by karber method; assay type: organism-based; conditions: in vivo, ip
# [25] = Acute toxicity in mouse assessed as mortality rate at 21 mg/kg, ip by karber method; assay type: organism-based; conditions: in vivo
# [26] = Acute toxicity in mouse assessed as mortality rate at 25 mg/kg, ip by karber method; assay type: organism-based; conditions: in vivo
# [27] = Acute toxicity in mouse assessed as mortality rate at 30 mg/kg, ip by karber method; assay type: organism-based; conditions: in vivo
# [28] = Acute toxicity in mouse assessed as alveolar cavity wrinkling at 25.8 mg/kg, ip by H and E staining based assay; assay type: organism-based; conditions: in vivo
# [29] = Acute toxicity in mouse assessed as inflammatory cell infiltration at 25.8 mg/kg, ip by H and E staining based assay; assay type: organism-based; conditions: in vivo
# [30] = Acute toxicity in mouse assessed as lung cell necrosis at 25.8 mg/kg, ip by H and E staining based assay; assay type: organism-based; conditions: in vivo
# [31] = Acute toxicity in mouse assessed as hepatocyte necrosis at 25.8 mg/kg, ip by H and E staining based assay; assay type: organism-based; conditions: hepatocytes
# [32] = Acute toxicity in mouse assessed as cellular atrophy at 25.8 mg/kg, ip by H and E staining based assay; assay type: organism-based; conditions: in vivo
# [33] = Acute toxicity in mouse assessed as renal cell necrosis at 25.8 mg/kg, ip by H and E staining based assay; assay type: organism-based; conditions: in vivo
# [34] = Acute toxicity in mouse assessed as tissue hemorrhage at 25.8 mg/kg, ip by H and E staining based assay; assay type: organism-based; conditions: in vivo
molecule,measurement,setting,value
O=C(O)c1cn(C2CC2)c2cc(N3CCNCC3)c(F)cc2c1=O [CIPROFLOXACIN],MIC,[1],8 µM
same,MIC,[2],2 µM
same,MIC,[3],8 µM
same,MIC,[4],8 µM
same,MIC,[5],< 1 µM
same,MIC,[6],2 µM
same,fold change (FC),[7],128
same,Activity,[8],Active
same,Activity,[9],Active
same,Activity,[10],Active
same,Activity,[11],inactive
same,MIC,[12],256 µM
same,MIC,[13],16 µM
same,MIC,[14],256 µM
same,MIC,[15],8 µM
same,MIC,[16],256 µM
same,MIC,[17],8 µM
same,MIC,[18],4 µM
same,MIC,[19],0.5 µM
same,MIC,[20],0.5 µM
same,MIC,[21],2 µM
same,MIC,[22],0.5 µM
POLYMYXIN B,MHC,[23],> 512 µM
same,LD50,[24],25.68 mg/kg
same,Activity,[25],0%
same,Activity,[26],60%
same,Activity,[27],80%
same,Activity,[28],Toxic
same,Activity,[29],Toxic
same,Activity,[30],Toxic
same,Activity,[31],Toxic
same,Activity,[32],Toxic
same,Activity,[33],Toxic
same,Activity,[34],Toxic
